Measurements as given in US11654199B2 (BOLT BIOTHERAPEUTICS, INC., priority 2019, dated 2023).

Key:
human TLR7 = molecular target: T1, human TLR7 (Homo sapiens, UniProt Q9NYK1); experiment: HEK293 NFKB reporter assay, human TLR7; assay type: cell-based; conditions: HEK293 NFKB reporter cells expressing human TLR7; read-out: HEK293 hTLR7 EC50
T1 construct: host or cells: HEK293 reporter cells
T1 sequence (Q9NYK1 27-1049): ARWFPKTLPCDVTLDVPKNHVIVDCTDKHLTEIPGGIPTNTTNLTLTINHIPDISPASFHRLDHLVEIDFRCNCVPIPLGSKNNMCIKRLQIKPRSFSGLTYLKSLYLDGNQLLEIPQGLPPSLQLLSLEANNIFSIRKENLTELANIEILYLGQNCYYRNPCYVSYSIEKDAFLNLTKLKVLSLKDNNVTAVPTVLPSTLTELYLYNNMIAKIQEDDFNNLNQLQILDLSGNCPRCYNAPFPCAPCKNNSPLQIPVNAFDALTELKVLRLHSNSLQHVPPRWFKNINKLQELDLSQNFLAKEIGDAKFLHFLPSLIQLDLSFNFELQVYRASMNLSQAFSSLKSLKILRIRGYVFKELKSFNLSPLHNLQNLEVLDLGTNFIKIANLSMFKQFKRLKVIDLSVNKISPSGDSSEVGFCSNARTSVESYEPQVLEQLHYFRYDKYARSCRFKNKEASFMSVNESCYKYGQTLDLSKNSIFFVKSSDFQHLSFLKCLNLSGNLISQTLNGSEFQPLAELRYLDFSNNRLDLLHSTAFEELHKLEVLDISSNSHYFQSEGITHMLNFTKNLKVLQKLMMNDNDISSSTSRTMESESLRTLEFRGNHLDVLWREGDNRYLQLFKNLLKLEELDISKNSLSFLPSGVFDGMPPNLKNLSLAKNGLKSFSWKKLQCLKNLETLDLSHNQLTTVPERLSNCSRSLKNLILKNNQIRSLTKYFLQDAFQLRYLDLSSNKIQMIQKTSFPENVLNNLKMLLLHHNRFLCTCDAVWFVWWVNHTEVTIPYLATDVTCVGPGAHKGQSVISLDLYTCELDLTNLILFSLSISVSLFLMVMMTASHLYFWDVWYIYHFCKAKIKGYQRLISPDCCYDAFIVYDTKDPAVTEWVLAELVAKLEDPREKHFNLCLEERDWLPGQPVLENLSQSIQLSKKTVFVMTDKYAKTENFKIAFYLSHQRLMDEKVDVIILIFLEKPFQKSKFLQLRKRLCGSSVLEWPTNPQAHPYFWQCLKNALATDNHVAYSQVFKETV
How it was run: (§1)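 HEK293 NF-κB reporter cells expressing human TLR7 or TLR8 were seeded at 4×10^4 cells/well in HEK detection medium containing the stimulatory molecules. Reporter activity was read by absorbance at 620-655 nm.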

human TLR8 = molecular target: T2, human TLR8 (Homo sapiens, UniProt Q9NR97); experiment: HEK293 NFKB reporter assay, human TLR8; assay type: cell-based; conditions: HEK293 NFKB reporter cells expressing human TLR8; read-out: HEK293 hTLR8 EC50
T2 construct: host or cells: HEK293 reporter cells
T2 sequence (Q9NR97 27-1041): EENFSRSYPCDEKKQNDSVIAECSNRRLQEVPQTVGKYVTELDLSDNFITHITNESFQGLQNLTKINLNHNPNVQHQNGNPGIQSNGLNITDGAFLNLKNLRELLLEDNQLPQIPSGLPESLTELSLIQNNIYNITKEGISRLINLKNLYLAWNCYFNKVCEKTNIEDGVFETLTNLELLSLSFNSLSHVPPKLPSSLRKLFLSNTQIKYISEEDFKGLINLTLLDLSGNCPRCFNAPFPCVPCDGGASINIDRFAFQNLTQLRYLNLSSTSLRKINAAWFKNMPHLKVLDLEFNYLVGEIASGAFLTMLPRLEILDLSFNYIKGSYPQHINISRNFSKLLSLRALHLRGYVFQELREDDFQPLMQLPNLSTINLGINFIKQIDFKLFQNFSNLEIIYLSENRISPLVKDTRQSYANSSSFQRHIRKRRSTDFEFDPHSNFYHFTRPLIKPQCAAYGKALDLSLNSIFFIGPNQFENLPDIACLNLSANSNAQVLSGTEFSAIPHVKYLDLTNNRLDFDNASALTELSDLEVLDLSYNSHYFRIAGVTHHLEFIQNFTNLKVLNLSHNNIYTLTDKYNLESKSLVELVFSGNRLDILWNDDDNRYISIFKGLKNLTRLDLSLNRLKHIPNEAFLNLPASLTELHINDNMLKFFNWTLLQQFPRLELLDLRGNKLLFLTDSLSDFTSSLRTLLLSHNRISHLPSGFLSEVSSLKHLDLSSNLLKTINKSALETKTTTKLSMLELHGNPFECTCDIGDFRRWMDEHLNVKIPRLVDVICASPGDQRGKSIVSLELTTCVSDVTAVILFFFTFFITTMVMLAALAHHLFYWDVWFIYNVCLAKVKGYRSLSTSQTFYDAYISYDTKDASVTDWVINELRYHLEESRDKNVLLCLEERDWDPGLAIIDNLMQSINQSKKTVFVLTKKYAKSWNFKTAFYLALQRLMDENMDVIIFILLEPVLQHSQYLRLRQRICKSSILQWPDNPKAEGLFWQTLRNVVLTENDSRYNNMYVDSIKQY
How it was run: as §1

Structure (SMILES)	EC50 (human TLR7)	EC50 (human TLR8)
CCCN(CCCNC(=O)OC1CCC1)C(=O)C1=Cc2sc(CN3Cc4ccc(NC(=O)CCN)cc4C3)cc2N=C(N)C1 [TAZ-189]	5720 nM	3390 nM
CCCN(CCCNC(=O)OC1CCC1)C(=O)C1=Cc2sc(CN3CCC(Nc4ccc(CN)cc4)C3)cc2N=C(N)C1 (centres unmarked) [TAZ-190]	2990 nM	4800 nM
CCCN(OCC)C(=O)C1=Cc2sc(C#CC3CNC3)cc2N=C(N)C1 [TAZ-193]	3360 nM	1520 nM
CCCN(OCC)C(=O)C1=Cc2sc(CCC3(O)CN(C(=O)OC(C)(C)C)C3)cc2N=C(N)C1 [TAZ-199]	31 nM	1610 nM
CCCN(OCC)C(=O)C1=Cc2sc(CN3Cc4ccc(NC(=O)CCNC(=O)OC(C)(C)C)cc4C3)cc2N=C(N)C1 [TAZ-202]	3680 nM	1370 nM
CCCN(OCC)C(=O)C1=Cc2sc(CN3CCCNCC3)cc2N=C(N)C1 [TAZ-225]	2560 nM	1210 nM
CCCN(OCC)C(=O)C1=Cc2sc(CN3CCCN(C(=O)OC(C)(C)C)CC3)cc2N=C(N)C1 [TAZ-226]	436 nM	4430 nM
CCCN(OCC)C(=O)C1=Cc2sc(CN3CC[C@H]4NC[C@H]4C3)cc2N=C(N)C1 [TAZ-227]	4390 nM	2290 nM
CCCN(OCC)C(=O)C1=Cc2sc(CN3CC[C@@H]4[C@H](C3)CN4C(=O)OC(C)(C)C)cc2N=C(N)C1 [TAZ-228]	3760 nM	3240 nM
CCCN(OCC)C(=O)C1=Cc2sc(CN3CCC(N)C3)cc2N=C(N)C1 (centres unmarked) [TAZ-234]	3330 nM	361 nM
CCCN(OCC)C(=O)C1=Cc2sc(CN3CC4CCC(C3)N4C(=O)OC(C)(C)C)cc2N=C(N)C1 [TAZ-241]	2810 nM	3060 nM
CCCN(OCC)C(=O)C1=Cc2sc(CCCN3CCNCC3)cc2N=C(N)C1 [TAZ-244]	2460 nM	146 nM
CCCN(OCC)C(=O)C1=Cc2sc(CN3CC4CCC(C3)N4)cc2N=C(N)C1 [TAZ-245]	5020 nM	145 nM
CCCN(OC(C)C)C(=O)C1=Cc2sc(CC3CN(C(=O)OC(C)(C)C)C3)cc2N=C(N)C1 [TAZ-249]	362 nM	640 nM

More lines, in order of falling EC50 (human TLR7), values ahead:

EC50 (human TLR7)	EC50 (human TLR8)	Structure (SMILES)
8130 nM	8270 nM	CCON(C(=O)C1=Cc2sc(CC3CN(C(=O)OC(C)(C)C)C3)cc2N=C(N)C1)C(C)CC (centres unmarked) [TAZ-254]
7170 nM	192 nM	CCCN(OC(C)C)C(=O)C1=Cc2sc(CC3CNC3)cc2N=C(N)C1 [TAZ-253, 5-amino-2-(azetidin-3-ylmethyl)-N-isopropoxy-N-propyl-6H-thieno[3,2-b]azepine-7-carboxamide]
6600 nM	953 nM	CCCN(OCC)C(=O)C1=Cc2sc(CCC3CNC3)cc2N=C(N)C1 [TAZ-195]
6120 nM	6700 nM	CCCN(OCC)C(=O)C1=Cc2sc(-c3cn[nH]c3)cc2N=C(N)C1 [TAZ-221]
4890 nM	2830 nM	CCCN(OCC)C(=O)C1=Cc2sc(CN3CCC(C(=O)OC)CC3)cc2N=C(N)C1 [TAZ-222]
4450 nM	868 nM	CCCN(OCC)C(=O)C1=Cc2sc(CC3CN(C(C)=O)C3)cc2N=C(N)C1 [TAZ-252]
4250 nM	5460 nM	CCCN(OCC)C(=O)C1=Cc2sc(CN3CCC4(CCNC4)CC3)cc2N=C(N)C1 [TAZ-240]
3800 nM	3140 nM	CCCN(OCC)C(=O)C1=Cc2sc(CN3CCC[C@@H](C(=O)OC)C3)cc2N=C(N)C1 [TAZ-223]
3610 nM	8510 nM	CCCN(OCC)C(=O)C1=Cc2sc(CN3CC4(C3)CN(C(=O)OC(C)(C)C)C4)cc2N=C(N)C1 [TAZ-208]
3410 nM	2720 nM	CCCN(OCC)C(=O)C1=Cc2sc(CN3CCNC(=O)C3)cc2N=C(N)C1 [TAZ-224]
3260 nM	3250 nM	CCCN(CCCNC(=O)OC1CCC1)C(=O)C1=Cc2sc(CNC(=O)c3ccccc3)cc2N=C(N)C1 [TAZ-203]
3200 nM	847 nM	CCCN(OCC)C(=O)C1=Cc2sc(CN3CC4(C3)CN(c3ccc(C)cc3)C4)cc2N=C(N)C1 [TAZ-219]
2920 nM	4070 nM	CCCN(OCC)C(=O)C1=Cc2sc(CCC3(O)CNC3)cc2N=C(N)C1 [TAZ-200]
2670 nM	2550 nM	CCCN(CCCNC(=O)OC1CCC1)C(=O)C1=Cc2sc(CNC(=O)Cc3ccccc3)cc2N=C(N)C1 [TAZ-204]
2220 nM	423 nM	CCCN(OCC)C(=O)C1=Cc2sc(CC3CCNC3)cc2N=C(N)C1 (centres unmarked) [TAZ-236]
1550 nM	2940 nM	CCCN(OCC)C(=O)C1=Cc2sc(CN3CC(CNC(=O)OC(C)(C)C)C3)cc2N=C(N)C1 [TAZ-210]
1260 nM	2540 nM	CCCN(OCC)C(=O)C1=Cc2sc(CN3CC(C(=O)OC(C)(C)C)C3)cc2N=C(N)C1 [TAZ-212]
824 nM	3480 nM	CCCN(CCCNC(=O)OC1CCC1)C(=O)C1=Cc2sc(C#CC3CNC3)cc2N=C(N)C1 [TAZ-192]
467 nM	631 nM	CCCN(OCC)C(=O)C1=Cc2sc(CCC3CN(C(=O)OC(C)(C)C)C3)cc2N=C(N)C1 [TAZ-194]
112 nM	286 nM	CCCN(OCCNC(=O)OC1CCC1)C(=O)C1=Cc2sc(CC3CNC3)cc2N=C(N)C1 [TAZ-238, cyclobutyl N-[2-[[5-amino-2-(azetidin-3-ylmethyl)-6H-thieno[3,2-b]azepine-7-carbonyl]-propyl-amino]oxyethyl]carbamate]
